Measured values: ChEMBL document CHEMBL1201862, “PubChem BioAssay data set” (2004)
Activity calls are given as the source filed them.

Experiments:
Protein RecA = biological target: T1, Protein RecA (Mycobacterium tuberculosis, UniProt P9WHJ3); experiment: Fluorescence Cell-Free Homogeneous Dose Retest to Identify Inhibitors of RecA-Intein Splicing Activity. [Related pubchem assays (depositor defined):AID2097, AID2223, AID489010, AID492950]; type: functional
T1 sequence (P9WHJ3 whole entry): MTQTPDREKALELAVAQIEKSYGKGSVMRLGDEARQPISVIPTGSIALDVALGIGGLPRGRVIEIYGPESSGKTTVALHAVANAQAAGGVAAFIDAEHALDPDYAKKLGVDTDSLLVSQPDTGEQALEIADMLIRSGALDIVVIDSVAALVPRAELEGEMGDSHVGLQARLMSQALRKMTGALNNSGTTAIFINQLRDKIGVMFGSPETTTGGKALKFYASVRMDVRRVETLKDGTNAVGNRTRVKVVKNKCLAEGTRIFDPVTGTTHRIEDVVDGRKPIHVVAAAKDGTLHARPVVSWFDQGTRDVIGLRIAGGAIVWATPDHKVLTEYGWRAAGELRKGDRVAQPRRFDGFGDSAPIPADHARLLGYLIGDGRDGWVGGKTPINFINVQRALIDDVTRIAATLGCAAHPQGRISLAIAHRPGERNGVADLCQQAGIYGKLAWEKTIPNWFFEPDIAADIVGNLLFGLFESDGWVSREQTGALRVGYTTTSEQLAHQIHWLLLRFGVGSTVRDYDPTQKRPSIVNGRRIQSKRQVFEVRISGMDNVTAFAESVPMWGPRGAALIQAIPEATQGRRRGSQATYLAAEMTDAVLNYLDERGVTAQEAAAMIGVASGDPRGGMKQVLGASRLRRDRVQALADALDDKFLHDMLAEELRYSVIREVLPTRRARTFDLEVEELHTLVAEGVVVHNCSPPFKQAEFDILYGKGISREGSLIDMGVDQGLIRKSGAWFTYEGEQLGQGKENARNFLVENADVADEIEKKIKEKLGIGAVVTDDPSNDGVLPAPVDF

Hexokinase HKDC1 = biological target: T2, Hexokinase HKDC1 (Homo sapiens, UniProt Q2TB90); experiment: inhibition of HKDC1 glucose phosphorylation – biochemical, W721R variant, dose response (AID 504729); type: functional
T2 sequence (Q2TB90 whole entry): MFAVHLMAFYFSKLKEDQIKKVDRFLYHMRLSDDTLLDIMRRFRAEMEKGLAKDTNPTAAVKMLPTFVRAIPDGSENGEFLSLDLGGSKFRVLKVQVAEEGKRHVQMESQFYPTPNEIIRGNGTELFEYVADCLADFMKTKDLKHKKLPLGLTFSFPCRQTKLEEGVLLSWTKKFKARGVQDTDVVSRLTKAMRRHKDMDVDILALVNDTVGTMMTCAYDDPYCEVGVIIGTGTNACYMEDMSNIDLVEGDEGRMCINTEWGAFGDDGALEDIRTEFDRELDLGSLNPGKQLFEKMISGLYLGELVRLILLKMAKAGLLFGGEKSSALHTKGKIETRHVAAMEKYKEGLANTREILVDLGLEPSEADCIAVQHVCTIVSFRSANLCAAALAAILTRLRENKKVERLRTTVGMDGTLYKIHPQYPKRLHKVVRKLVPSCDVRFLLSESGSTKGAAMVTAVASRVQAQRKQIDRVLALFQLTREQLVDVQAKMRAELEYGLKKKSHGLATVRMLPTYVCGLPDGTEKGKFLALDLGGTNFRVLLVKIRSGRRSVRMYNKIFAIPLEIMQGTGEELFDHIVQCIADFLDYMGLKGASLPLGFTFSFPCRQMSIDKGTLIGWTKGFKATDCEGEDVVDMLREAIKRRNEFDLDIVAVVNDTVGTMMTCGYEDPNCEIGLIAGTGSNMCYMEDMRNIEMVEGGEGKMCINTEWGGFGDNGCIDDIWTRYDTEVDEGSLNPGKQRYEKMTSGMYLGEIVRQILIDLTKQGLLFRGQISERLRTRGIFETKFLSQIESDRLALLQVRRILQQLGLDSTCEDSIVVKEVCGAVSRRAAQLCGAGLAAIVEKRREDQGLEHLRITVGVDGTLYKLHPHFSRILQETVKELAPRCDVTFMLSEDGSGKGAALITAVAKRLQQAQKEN

[1] = biological target: T3, Replicative DNA helicase DnaB (Mycobacterium tuberculosis, UniProt P9WMR3); experiment: DnaB intein splicing inhibitors, dose response, biochemical, cell-free fluorescence (AID 449749); type: functional
T3 sequence (P9WMR3 whole entry): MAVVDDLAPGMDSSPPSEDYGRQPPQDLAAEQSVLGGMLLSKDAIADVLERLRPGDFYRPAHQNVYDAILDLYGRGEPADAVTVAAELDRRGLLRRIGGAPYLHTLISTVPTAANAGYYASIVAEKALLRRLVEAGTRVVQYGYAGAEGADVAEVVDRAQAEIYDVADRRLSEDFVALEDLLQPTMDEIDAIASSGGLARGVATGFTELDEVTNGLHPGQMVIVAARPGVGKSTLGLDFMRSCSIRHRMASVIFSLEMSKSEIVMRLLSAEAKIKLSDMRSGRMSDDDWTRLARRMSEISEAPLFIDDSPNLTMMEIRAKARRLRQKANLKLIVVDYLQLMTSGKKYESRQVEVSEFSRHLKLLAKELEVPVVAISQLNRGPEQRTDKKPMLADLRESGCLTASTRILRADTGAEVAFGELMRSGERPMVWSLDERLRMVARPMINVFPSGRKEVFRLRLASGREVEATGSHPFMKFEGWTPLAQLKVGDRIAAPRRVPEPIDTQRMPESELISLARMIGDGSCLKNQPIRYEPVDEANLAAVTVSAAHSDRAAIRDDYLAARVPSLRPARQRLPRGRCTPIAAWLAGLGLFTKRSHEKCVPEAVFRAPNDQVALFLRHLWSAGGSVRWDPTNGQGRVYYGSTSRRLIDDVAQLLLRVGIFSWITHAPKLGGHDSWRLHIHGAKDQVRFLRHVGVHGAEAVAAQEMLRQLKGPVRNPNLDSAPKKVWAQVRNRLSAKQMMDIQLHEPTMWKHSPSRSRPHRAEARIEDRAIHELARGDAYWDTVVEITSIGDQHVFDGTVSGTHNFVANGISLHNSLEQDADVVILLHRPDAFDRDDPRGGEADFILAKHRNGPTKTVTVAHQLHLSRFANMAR

[2] = biological target: T4, Low molecular weight phosphotyrosine protein phosphatase (Homo sapiens, UniProt P24666); type: functional; conditions: read-out: IC50_Mean;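 also: Dose-response confirmation assay measuring inhibition of LMPTP enzyme activity by fluorescence intensity read-out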
T4 sequence (P24666 whole entry): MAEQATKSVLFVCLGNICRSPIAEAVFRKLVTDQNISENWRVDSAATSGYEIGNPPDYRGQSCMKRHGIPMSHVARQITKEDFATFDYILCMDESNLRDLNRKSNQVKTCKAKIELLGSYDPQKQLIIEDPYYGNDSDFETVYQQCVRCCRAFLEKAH

HEK293 [3] = experiment: cells; type: functional, cell-based; conditions: Homo sapiens
HEK293 [4] = experiment: NOD2 signaling inhibitors in MDP-stimulated cells, cell-based, uHTS, luminescence (AID 2001); type: functional; conditions: Homo sapiens
HEK293 [5] = experiment: inhibition of NOD1-driven NF-kB reporter – cell-based, luminescence, uHTS, primary screen (AID 1578); type: functional; conditions: Homo sapiens
HEK293 [6] = experiment: cells; type: functional, cell-based; conditions: Homo sapiens; remark: listed apart in the source
[7] = biological target: Nucleotide-binding oligomerization domain-containing protein 2 (Homo sapiens, UniProt Q9HC29); experiment: inhibition of NOD2-driven NF-kB reporter – cell-based, luminescence, uHTS, HEK293 (AID 1566); type: functional
Sequence of Nucleotide-binding oligomerization domain-containing protein 2 (Q9HC29 whole entry, the tested form may be a part): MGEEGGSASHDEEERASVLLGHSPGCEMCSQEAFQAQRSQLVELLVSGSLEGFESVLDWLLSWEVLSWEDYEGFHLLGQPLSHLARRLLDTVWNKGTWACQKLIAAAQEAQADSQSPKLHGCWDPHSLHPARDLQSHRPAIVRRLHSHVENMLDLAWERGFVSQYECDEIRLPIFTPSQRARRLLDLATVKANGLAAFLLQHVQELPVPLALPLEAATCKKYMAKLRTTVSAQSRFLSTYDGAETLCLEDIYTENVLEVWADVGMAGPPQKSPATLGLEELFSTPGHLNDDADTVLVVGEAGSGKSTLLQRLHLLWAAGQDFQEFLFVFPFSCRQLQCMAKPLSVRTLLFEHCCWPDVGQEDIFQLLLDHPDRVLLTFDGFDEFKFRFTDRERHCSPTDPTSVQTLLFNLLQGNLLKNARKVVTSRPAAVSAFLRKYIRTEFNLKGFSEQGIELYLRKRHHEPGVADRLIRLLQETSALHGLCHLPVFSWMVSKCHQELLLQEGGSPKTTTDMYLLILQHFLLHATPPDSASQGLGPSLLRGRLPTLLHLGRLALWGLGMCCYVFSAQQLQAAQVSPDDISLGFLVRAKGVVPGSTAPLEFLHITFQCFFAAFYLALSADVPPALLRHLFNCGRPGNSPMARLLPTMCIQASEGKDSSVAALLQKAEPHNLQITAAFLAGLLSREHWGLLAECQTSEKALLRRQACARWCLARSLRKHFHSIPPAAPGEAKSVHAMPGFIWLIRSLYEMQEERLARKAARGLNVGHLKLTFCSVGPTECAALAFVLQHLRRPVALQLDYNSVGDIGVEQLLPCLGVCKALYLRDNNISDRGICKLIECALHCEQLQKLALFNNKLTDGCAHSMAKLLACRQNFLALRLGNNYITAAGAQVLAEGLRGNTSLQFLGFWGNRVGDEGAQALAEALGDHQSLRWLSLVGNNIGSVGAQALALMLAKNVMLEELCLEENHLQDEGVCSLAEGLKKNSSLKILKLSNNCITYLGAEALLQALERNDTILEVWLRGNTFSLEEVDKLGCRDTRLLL

HEK293 [8] = experiment: cells; type: functional, cell-based; conditions: Homo sapiens; remark: listed apart in the source
[9] = Luminescence Cell-Based Dose Retest to Confirm Inhibitors of Cancer Stem Cells. [Related pubchem assays (depositor defined):AID2717, AID2721]; type: functional, Homo sapiens; conditions: Homo sapiens
Vero = experiment: viability of Vero cells under compound – cytotoxicity control for flavivirus capping enzyme inhibitors (AID 588742); type: functional; conditions: Chlorocebus sabaeus
Genome polyprotein = Genome polyprotein (dengue virus type 2, UniProt P29990); experiment: flavivirus cap methylation enzyme inhibition – biochemical, confirmation dose response, primary screen (AID 588689); type: functional
Sequence of Genome polyprotein (P29990 2492-3391 limits assumed): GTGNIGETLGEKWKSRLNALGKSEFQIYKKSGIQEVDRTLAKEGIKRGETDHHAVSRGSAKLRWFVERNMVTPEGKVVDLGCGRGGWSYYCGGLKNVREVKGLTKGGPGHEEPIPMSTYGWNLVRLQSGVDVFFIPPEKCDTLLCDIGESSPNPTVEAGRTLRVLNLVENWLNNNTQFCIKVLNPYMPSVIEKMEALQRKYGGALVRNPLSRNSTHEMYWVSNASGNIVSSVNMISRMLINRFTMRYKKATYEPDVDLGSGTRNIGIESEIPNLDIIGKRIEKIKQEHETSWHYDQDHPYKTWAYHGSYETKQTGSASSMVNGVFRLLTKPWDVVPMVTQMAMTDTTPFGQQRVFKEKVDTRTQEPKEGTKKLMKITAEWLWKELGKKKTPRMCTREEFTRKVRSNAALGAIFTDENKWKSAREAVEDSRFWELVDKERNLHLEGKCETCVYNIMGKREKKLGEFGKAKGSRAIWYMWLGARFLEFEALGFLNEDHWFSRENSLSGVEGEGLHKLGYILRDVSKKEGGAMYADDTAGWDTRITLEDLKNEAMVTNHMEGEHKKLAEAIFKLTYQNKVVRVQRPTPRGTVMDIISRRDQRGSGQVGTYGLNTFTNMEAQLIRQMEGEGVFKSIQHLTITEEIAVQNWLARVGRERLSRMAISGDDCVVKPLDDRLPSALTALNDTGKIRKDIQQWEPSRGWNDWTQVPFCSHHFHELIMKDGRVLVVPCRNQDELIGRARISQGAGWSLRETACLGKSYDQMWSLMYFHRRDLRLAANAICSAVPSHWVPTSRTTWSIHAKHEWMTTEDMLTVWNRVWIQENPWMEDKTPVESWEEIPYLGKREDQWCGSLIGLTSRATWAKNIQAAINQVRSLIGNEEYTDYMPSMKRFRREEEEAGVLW

Q: With `Cc1ccc(S(=O)(=O)Nc2c(O)ccc3ccccc23)cc1` as the compound, how does the EC50 (Protein RecA) read?
A: The EC50 was 0.939 µM (active).

Q: What about the IC50 (Hexokinase HKDC1) of the same compound?
A: The IC50 was 16.1 µM (active).

Q: What about the AC50 [1] of the same compound?
A: The AC50 was 8.03 µM (active).

Q: Which IC50 (Hexokinase HKDC1) does the source give for `CCOC(=O)CSc1nc2ccc(C)cc2n2cnnc12` here?
A: Its IC50 is 9.55 µM (active).

Q: Which IC50 [2] does the source give for `CCn1cc(C(=O)O)c(=O)c2cc(F)c(N3CCN(C(=S)NC(=O)c4cccc(C)c4)CC3)cc21` here?
A: The IC50 was 2.74 µM (active).

Q: With `Cc1nc(SCCC(=O)O)c2cc(-c3ccccc3)sc2n1` as the compound, how does the IC50 (HEK293 [3]) read?
A: Its IC50 is 4.5 µM (active).

Q: And the IC50 (HEK293 [4])?
A: The IC50 was > 20 µM (inactive).

Q: What about the EC50 (HEK293 [5]) of the same compound?
A: The EC50 was > 20 µM (inactive).

Q: And the IC50 (HEK293 [6])?
A: Its IC50 is > 20 µM (inactive).

Q: And the EC50 [7]?
A: The EC50 was > 20 µM (inactive).

Q: And the IC50 (HEK293 [8])?
A: Its IC50 is > 20 µM (inactive).

Q: For `O=C(Nc1ccccc1-c1nc2ccccc2s1)C1=COCCO1`, which IC50 [2] is on record?
A: Its IC50 is 11.7 µM (active).

Q: Which results are given for `Cc1ccc(S(=O)(=O)Nc2ccccc2-c2ccccc2NS(=O)(=O)c2ccc(C)cc2)cc1`?
A: IC50 (HEK293 [3]): 11.8 µM (active); IC50 (HEK293 [4]): 10 µM (inactive); AC50 [9]: 6.86 µM (active); CC50 (Vero): > 40 µM (active); EC50 (HEK293 [5]): 4.99 µM (active); IC50 (HEK293 [6]): > 20 µM (inactive); IC50 (Genome polyprotein): 54.8 µM (active); EC50 [7]: 11.5 µM (active); IC50 (HEK293 [8]): > 20 µM (inactive)

Q: For `CCn1cc(C(=O)O)c(=O)c2cc(F)c(N3CCN(C(=S)NC(=O)c4ccc(Br)cc4)CC3)cc21`, which IC50 [2] is on record?
A: Its IC50 is 3.17 µM (active).

Q: With `NC(=O)c1c(NC(=O)C(=O)N2CCOCC2)sc2c1CCCC2` as the compound, how does the IC50 (HEK293 [3]) read?
A: Its IC50 is > 20 µM (inactive).

Q: What about the IC50 (HEK293 [4]) of the same compound?
A: The IC50 was > 20 µM (inactive).

Q: What about the EC50 (HEK293 [5]) of the same compound?
A: The EC50 was > 20 µM (inactive).

Q: And the IC50 (HEK293 [6])?
A: The IC50 was > 20 µM (inactive).

Q: And the EC50 [7]?
A: Its EC50 is > 20 µM (inactive).

Q: What about the IC50 (HEK293 [8]) of the same compound?
A: The IC50 was > 20 µM (inactive).
